Read-outs that look alike come from different tables or passages of the source. Marks after values point to notes of the source that are not given here.
Tests used:
[1] = cited from earlier work
pregnant dams and pups = conditions: ref EFSA's Draft Assessment Reports (DARs); cited from earlier work
Wistar rats [2] = test: In vivo Study 3 (fludioxonil, cyprodinil, dimethomorph), reproductive/developmental toxicity, AGD; conditions: for AGDI mean: Study 3, male pups
androgen receptor (AR) = molecular target: T1, androgen receptor (AR) (Homo sapiens, UniProt P10275); test: AR-EcoScreen androgen receptor transcriptional activation assay (AR antagonism); assay type: cell-based
T1 construct: host or cells: AR-EcoScreen cells
T1 sequence (P10275 1-920): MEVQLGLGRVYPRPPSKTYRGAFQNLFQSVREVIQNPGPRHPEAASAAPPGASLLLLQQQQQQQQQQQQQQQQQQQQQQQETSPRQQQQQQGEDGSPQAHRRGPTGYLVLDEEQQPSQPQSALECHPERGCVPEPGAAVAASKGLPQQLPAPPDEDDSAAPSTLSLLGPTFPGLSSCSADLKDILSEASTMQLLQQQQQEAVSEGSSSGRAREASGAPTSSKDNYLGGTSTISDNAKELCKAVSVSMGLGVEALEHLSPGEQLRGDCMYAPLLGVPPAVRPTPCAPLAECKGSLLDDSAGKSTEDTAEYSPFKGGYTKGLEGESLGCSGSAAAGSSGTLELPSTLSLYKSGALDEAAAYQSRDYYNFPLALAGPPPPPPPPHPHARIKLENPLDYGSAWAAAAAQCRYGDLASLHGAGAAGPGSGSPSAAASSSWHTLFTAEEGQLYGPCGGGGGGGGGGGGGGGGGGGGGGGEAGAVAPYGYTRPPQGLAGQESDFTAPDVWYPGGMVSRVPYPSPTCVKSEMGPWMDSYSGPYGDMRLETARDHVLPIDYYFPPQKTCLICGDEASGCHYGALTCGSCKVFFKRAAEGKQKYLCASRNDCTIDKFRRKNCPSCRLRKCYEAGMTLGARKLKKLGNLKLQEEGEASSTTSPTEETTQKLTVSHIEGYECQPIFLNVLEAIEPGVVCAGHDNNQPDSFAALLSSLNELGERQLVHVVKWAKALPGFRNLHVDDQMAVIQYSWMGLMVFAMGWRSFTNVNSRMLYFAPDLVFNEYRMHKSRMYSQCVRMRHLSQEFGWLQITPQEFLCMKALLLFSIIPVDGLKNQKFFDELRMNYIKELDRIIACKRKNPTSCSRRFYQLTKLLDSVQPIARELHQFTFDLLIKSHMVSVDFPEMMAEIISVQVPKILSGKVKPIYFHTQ
Procedure: Experiments were run with three technical replicates and repeated three times. The mean value of technical replicates represents one biological replicate. AR-EcoScreen™ cells (JCRB1328; Japanese Collection of Research Bioresources) were grown in CellBIND® surface cell culture flasks (Corning Inc.) in growth medium consisting of Gibco® Dulbecco’s Modified Eagle’s Medium/F-12 (DMEM/F-12) Nutrient Mixture with L-glutamine and 4-(2-hydroxyethyl)-1-piperazineethanesulfonic acid (HEPES) and without phenol red supplemented with 5% fetal bovine serum (FBS), 1% penicillin-streptomycin, 200μg/mL Zeocin™ selection reagent, and 100μg/mL Hygromycin B (all reagents from Invitrogen, Life Technologies). The cells were incubated at 37°C in a humidified atmosphere of 5% carbon dioxide ( CO2 ) and 95% air. On the day before the experiment, cells were plated in white 96-well plates (Corning Inc.) at a density of 9,000 cells/well in assay medium consisting of Gibco® DMEM/F-12 Nutrient Mixture medium, 1% penicillin-streptomycin, with 5% dextran-coated charcoal-treated FBS (all reagents from Invitrogen, Life Technologies). On the following day, the medium was changed to assay medium containing the known AR agonist R1881 (Perkin Elmer) in 2-fold serial dilutions from 0.008 to 1 nM or the known AR antagonist hydroxyflutamide (CASRN 52806-53-8, Toronto Research Chemicals) in 3-fold serial dilutions from […] together with 0.1 nM R1881. […] The DMSO vehicle concentrations were kept constant in all wells (0.1%). Following approximately 20 h of exposure to test compounds firefly luminescence was measured in a luminometer (LUMIstar® Galaxy, BMG LABTECH) using Dual-Glo® Luciferase Reagent from the Dual-Glo® Luciferase Assay System from Promega. Cell viability was measured by Renilla luminescence using Dual-Glo® Stop & Glo® Reagent from the Dual-Glo® Luciferase Assay System.

Wistar rats [3] = conditions: male, rat, in vivo, 40 mg/kg/day
Procedure: In total, four in vivo exposure studies were conducted with pesticide exposures to pregnant rats during gestation and lactation to the selected compound (Table 2). […] For one selected dose of each compound, the internal body concentrations in dams and fetuses were determined by cesarean section at GD21. Due to the study outcomes from the third study, we conducted a fourth follow-up study on dimethomorph (Study 4).
Pup weights and AGD were measured after birth at PD1 using a stereomicroscope with a micrometer eyepiece and were determined as the distance between the genital papilla and the anus. To discriminate between an anti-androgenic effect and stunted growth, the AGD index (AGDI) was calculated by dividing AGD by the cube root of the BW (as described by [Hass et al. 2007]). The estimation of AGDI effect doses by regression modeling required a standardized AGDI scale. Therefore, we normalized the AGDI values in relation to the dynamic range spanned by the mean AGDI of the male and the female controls as (38) normalized AGDI=mean(AGDI of male controls)−AGDI(exposed animal)/mean(AGDI of male controls)−mean(AGDI of female controls).

COc1ccc(C(=CC(=O)N2CCOCC2)c2ccc(Cl)cc2)cc1OC [Dimethomorph, dimethomorph]
Unbound plasma fraction (%) ([1]; plasma): 9.4^g % | Critical toxicity (pregnant dams and pups): Reduced maternal and pup body weight, reduced gestation length | LOAEL (mg/kg bw) (pregnant dams and pups): 67 mg/kg bw | NOAEL (mg/kg bw) (pregnant dams and pups): 20 mg/kg bw | % postnatal deaths (Wistar rats [2]; 20 mg/kg bw/day): 1.4 ± 3.8% | AGD index females (Wistar rats [2]; 20 mg/kg bw/day): 1.12 ± 0.03 | AGD index males (Wistar rats [2]; 20 mg/kg bw/day): 2.01 ± 0.04 | % postnatal deaths (Wistar rats [2]; 60 mg/kg bw/day): 2.6 ± 4.1% | AGD index females (Wistar rats [2]; 60 mg/kg bw/day): 1.18 ± 0.05 | AGD index males (Wistar rats [2]; 60 mg/kg bw/day): 2.15 ± 0.08

N#Cc1c[nH]cc1-c1cccc2c1OC(F)(F)O2 [Fludioxonil, fludioxonil]
Unbound plasma fraction (%) ([1]; ref Wetmore et al. (2012)): 0.5^g % | Critical toxicity (pregnant dams and pups): Reduced maternal and pup BW | LOAEL (mg/kg bw) (pregnant dams and pups): 212 mg/kg bw | NOAEL (mg/kg bw) (pregnant dams and pups): 21 mg/kg bw | % perinatal loss (Wistar rats [2]; 20 mg/kg bw/day): 11.5 ± 11.9% | % postimplantation loss (Wistar rats [2]; 20 mg/kg bw/day): 8.4 ± 10.2% | % postnatal deaths (Wistar rats [2]; 20 mg/kg bw/day): 3.1 ± 9.7% | %males (Wistar rats [2]; 20 mg/kg bw/day): 54.8 ± 15.6% | AGD females (mm) (Wistar rats [2]; 20 mg/kg bw/day): 2.15 ± 0.09 mm | AGD females (units) (Wistar rats [2]; 20 mg/kg bw/day): 13.04 ± 0.5 units | AGD males (mm) (Wistar rats [2]; 20 mg/kg bw/day): 3.84 ± 0.12 mm | AGD males (units) (Wistar rats [2]; 20 mg/kg bw/day): 23.26 ± 0.7 units | Dam bw gain PD 1-14 (Wistar rats [2]; 20 mg/kg bw/day): 33.1 ± 12.7 | Dam bw gain, GD7- PD 1 (Wistar rats [2]; 20 mg/kg bw/day): 23.8 ± 10.5 | Dam bw gain,GD7-21 (Wistar rats [2]; 20 mg/kg bw/day): 92.7 ± 15.8 | Female birth weight (Wistar rats [2]; 20 mg/kg bw/day): 6.21 ± 0.5 | Gestation length (Wistar rats [2]; 20 mg/kg bw/day): 23.0 ± 0.0 days | Litter size (Wistar rats [2]; 20 mg/kg bw/day): 10.5 ± 2.4 | Male birth weight (Wistar rats [2]; 20 mg/kg bw/day): 6.48 ± 0.4 | Male weights PD 23 (Wistar rats [2]; 20 mg/kg bw/day): 48.66 ± 6.1 | Nipple retention females (Wistar rats [2]; 20 mg/kg bw/day): 12.21 ± 0.2 | Nipple retention males (Wistar rats [2]; 20 mg/kg bw/day): 0.04 ± 0.09 | Offspring weight PD 6 (Wistar rats [2]; 20 mg/kg bw/day): 12.98 ± 1.3 | Offspring weight PD 14 (Wistar rats [2]; 20 mg/kg bw/day): 28.07 ± 3.3 | % perinatal loss (Wistar rats [2]; 60 mg/kg bw/day): 18.7 ± 32.5% | % postimplantation loss (Wistar rats [2]; 60 mg/kg bw/day): 15.9 ± 32.1% | % postnatal deaths (Wistar rats [2]; 60 mg/kg bw/day): 3.4 ± 9.6% | %males (Wistar rats [2]; 60 mg/kg bw/day): 47.2 ± 14.5% | AGD females (mm) (Wistar rats [2]; 60 mg/kg bw/day): 2.10 ± 0.11 mm | AGD females (units) (Wistar rats [2]; 60 mg/kg bw/day): 12.70 ± 0.6 units | AGD males (mm) (Wistar rats [2]; 60 mg/kg bw/day): 3.77 ± 0.16 mm | AGD males (units) (Wistar rats [2]; 60 mg/kg bw/day): 22.83 ± 1.0 units | Dam bw gain PD 1-14 (Wistar rats [2]; 60 mg/kg bw/day): 38.1 ± 10.8 | Dam bw gain, GD7- PD 1 (Wistar rats [2]; 60 mg/kg bw/day): 16.8 ± 8.1 | Dam bw gain,GD7-21 (Wistar rats [2]; 60 mg/kg bw/day): 84.8 ± 9.7 | Female birth weight (Wistar rats [2]; 60 mg/kg bw/day): 6.18 ± 0.3 | Gestation length (Wistar rats [2]; 60 mg/kg bw/day): 23.0 ± 0.0 days | Litter size (Wistar rats [2]; 60 mg/kg bw/day): 11.0 ± 1.3 | Male birth weight (Wistar rats [2]; 60 mg/kg bw/day): 6.58 ± 0.4 | Male weights PD 23 (Wistar rats [2]; 60 mg/kg bw/day): 49.78 ± 6.9 | Nipple retention females (Wistar rats [2]; 60 mg/kg bw/day): 12.13 ± 0.2 | Nipple retention males (Wistar rats [2]; 60 mg/kg bw/day): 0.08 ± 0.16 | Offspring weight PD 6 (Wistar rats [2]; 60 mg/kg bw/day): 13.20 ± 1.6 | Offspring weight PD 14 (Wistar rats [2]; 60 mg/kg bw/day): 28.41 ± 4.2 | % perinatal loss (Wistar rats [2]; 180 mg/kg bw/day): 32.3 ± 35.6% | % postimplantation loss (Wistar rats [2]; 180 mg/kg bw/day): 31.4 ± 36.0% | % postnatal deaths (Wistar rats [2]; 180 mg/kg bw/day): 1.1 ± 2.7% | %males (Wistar rats [2]; 180 mg/kg bw/day): 63.0 ± 20.8% | AGD females (mm) (Wistar rats [2]; 180 mg/kg bw/day): 2.15 ± 0.10 mm | AGD females (units) (Wistar rats [2]; 180 mg/kg bw/day): 13.04 ± 0.6 units | AGD males (mm) (Wistar rats [2]; 180 mg/kg bw/day): 3.81 ± 0.18 mm | AGD males (units) (Wistar rats [2]; 180 mg/kg bw/day): 23.11 ± 1.1 units | Dam bw gain PD 1-14 (Wistar rats [2]; 180 mg/kg bw/day): 23.2 ± 15.5 | Dam bw gain, GD7- PD 1 (Wistar rats [2]; 180 mg/kg bw/day): 17.5 ± 14.9 | Dam bw gain,GD7-21 (Wistar rats [2]; 180 mg/kg bw/day): 71.3 ± 20.7 | Female birth weight (Wistar rats [2]; 180 mg/kg bw/day): 6.06 ± 0.5 | Gestation length (Wistar rats [2]; 180 mg/kg bw/day): 22.8 ± 0.75 days | Litter size (Wistar rats [2]; 180 mg/kg bw/day): 8.2 ± 5.0 | Male birth weight (Wistar rats [2]; 180 mg/kg bw/day): 6.51 ± 0.6 | Male weights PD 23 (Wistar rats [2]; 180 mg/kg bw/day): 47.97 ± 5.6 | Nipple retention females (Wistar rats [2]; 180 mg/kg bw/day): 12.41 ± 0.6 | Nipple retention males (Wistar rats [2]; 180 mg/kg bw/day): 0.47 ± 0.78 | Offspring weight PD 6 (Wistar rats [2]; 180 mg/kg bw/day): 12.54 ± 1.9 | Offspring weight PD 14 (Wistar rats [2]; 180 mg/kg bw/day): 26.58 ± 4.1 | Nipple retention at PD14, statistics in words (Wistar rats [2]; Study 3): no statistically significant effects on nipple retention | AGDI mean (Wistar rats [2]; dose 20 mg/kg BW): 2.06 | AGDI mean (Wistar rats [2]; dose 60 mg/kg BW): 2.01 | AGDI mean (Wistar rats [2]; dose 180 mg/kg BW): 2.06 | AGDI reduction (%) (Wistar rats [2]; male offspring, normalized AGDI scale, dose 60 mg/kg BW per day): 13%

CC12CC1(C)C(=O)N(c1cc(Cl)cc(Cl)c1)C2=O (stereo not shown) [Procymidone, procymidone, reference compound]
IC50 (androgen receptor (AR)): 400 nM | AR antagonism, in words (androgen receptor (AR); reporter gene assay): antagonized the AR | AGDI reduction (%) (Wistar rats [3]): 34^d %
